Experiments:
Saccharomyces cerevisiae = test: Assay for antifungal activity (agar well zone of inhibition); type: cell-based
Procedure: Yeast organism (Saccharomyces cerevisiae) in logarithmic growth were plated on complete agar medium (YPD). Compounds dissolved in an appropriate aqueous or organic solvent were placed in wells punched in the agar. Plates were incubated for 48 hours and zones of inhibition were measured. The potency of compounds were quantified by regression analysis of plots of inhibition zone versus the log of drug concentration.

Spleen cells = test: Mitogenesis assay for immunosuppressive activity (Concanavalin A stimulated spleen cells, 3H-thymidine); type: cell-based, BDF1 female mice
Procedure: Spleen cells for BDF1 female mice were established in RPMI with 10% fetal calf serum at 5×10^6 /mL. One hundred […] of this suspension (5×10^5 cells) were dispensed into 96-well round-bottomed microtiter plates (Linbro, Flow Laboratories). Concanavalin A (5 μg/ml) was added as the mitogenic stimulus, and the final volume in the microliter wells was adjusted to 200 μL with RPMI. Cell cultures were incubated for 72 hours at 37° C. in a 5% CO2 atmosphere and pulsed with 0,5 μCi ^3 H-thymidine (specific activity […]) for the last 18 hours of the 72 hours culture. The cells were harvested on an automated multiple sample harvester and cell-associated radioactivity counted in a Beckman liquid scintillation counter. The results were expressed as the mean values derived from quadruplicate measurements. Cell viability was determined by trypan blue exclusion after 72 hours of incubation. Compounds to be tested were added to the microtiler plates at the appropriate dilutions prior to the addition of cells.

Substance: 13,14-Bis(dihydro)rapamycin
- antifungal activity (in words) (Saccharomyces cerevisiae): shows antifungal activity
- Antifungal Activity, IC12 (Saccharomyces cerevisiae; Saccharomyces cerevisiae on YPD agar, 48 hours, zones of inhibition): 190 to 840 ng/mL
- immunomodulatory activity (in words) (Spleen cells): shows immunomodulatory activity
- IC50 (Spleen cells; spleen cells of BDF1 mice, Concanavalin A 5 μg/ml, 72 hours): 70 to 200 nM

From US5583018A, “Rapamycin derivative process for its preparation and its use” (SmithKline Beecham p.l.c., priority 1993, dated 1996)
